Residue numbers refer to the chain shown, from its start.

Data on seven compounds can be found in paper PMC6797481, “Identification of an allosteric binding site on the human glycine transporter, GlyT2, for bioactive lipid analgesics” (eLife, 2019).

In one assay the target is T1, GlyT2 F428A mutant (Homo sapiens, UniProt Q9Y345, F428A).
T1 construct: expressed in transfected cells; host or cells: Xenopus laevis oocytes (cRNA injection)
T1 sequence (Q9Y345 1-797 F428A): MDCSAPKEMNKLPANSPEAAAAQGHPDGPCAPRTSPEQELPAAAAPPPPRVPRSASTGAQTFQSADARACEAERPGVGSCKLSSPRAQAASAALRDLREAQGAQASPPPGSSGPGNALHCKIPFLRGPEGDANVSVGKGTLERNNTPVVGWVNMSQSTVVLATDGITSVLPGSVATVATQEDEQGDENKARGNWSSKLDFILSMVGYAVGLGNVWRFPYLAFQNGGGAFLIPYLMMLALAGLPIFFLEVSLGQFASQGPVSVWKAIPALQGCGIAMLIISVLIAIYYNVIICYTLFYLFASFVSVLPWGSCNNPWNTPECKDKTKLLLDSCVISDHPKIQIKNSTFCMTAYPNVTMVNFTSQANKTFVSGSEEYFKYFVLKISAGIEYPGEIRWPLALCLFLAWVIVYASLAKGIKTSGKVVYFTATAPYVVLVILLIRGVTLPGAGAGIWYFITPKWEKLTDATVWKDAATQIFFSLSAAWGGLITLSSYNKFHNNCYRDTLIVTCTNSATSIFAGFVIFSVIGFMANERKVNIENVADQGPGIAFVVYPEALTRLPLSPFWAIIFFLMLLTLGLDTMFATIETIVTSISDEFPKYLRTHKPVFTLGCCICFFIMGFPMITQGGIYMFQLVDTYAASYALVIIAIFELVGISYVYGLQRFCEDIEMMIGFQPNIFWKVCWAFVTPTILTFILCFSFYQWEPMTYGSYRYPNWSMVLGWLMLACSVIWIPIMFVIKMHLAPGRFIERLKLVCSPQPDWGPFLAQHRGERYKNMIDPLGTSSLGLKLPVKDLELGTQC
As to the kind of experiment: Glycine transport currents, two electrode voltage clamp, oocytes expressing GlyT2 F428A. Format: cell-based. To be noted: GlyT2 F428A; for % Max. inhibition: mean ± SEM. The procedure: (§1) Glycine was first applied to establish maximal transport current.
(§2) Compounds were tested for inhibition of glycine transport on Xenopus laevis oocytes expressing mutant GlyT1 and GlyT2 transporters. n values are in brackets, with measurements taken from at least 2 batches of oocytes.

A further assay concerns the target T2, GlyT2 WT (Homo sapiens, UniProt Q9Y345).
T2 sequence (Q9Y345 1-797): T1 sequence (Q9Y345 1-797 F428A) with A428F
Set-up: expressed in transfected cells; host or cells: Xenopus laevis oocytes (cRNA injection). To be noted: WT GlyT2, previously published, cited from earlier work; for IC50: mean (95% CI); for GlyT2 % max. inhibition: mean ± SEM.

The test system of the next assay is GlyT1 WT. Also noted: method as in earlier work. The following applies: previously published; cited from earlier work.
A further assay concerns the target T3, GlyT2 Y550L mutant (Homo sapiens, UniProt Q9Y345, Y550L).
T3 construct: expressed in transfected cells; host or cells: Xenopus laevis oocytes (cRNA injection)
T3 sequence (Q9Y345 1-797 Y550L): T1 sequence (Q9Y345 1-797 F428A) with A428F, Y550L
As to the kind of experiment: Glycine transport currents, two electrode voltage clamp, oocytes expressing GlyT2 Y550L. Format: cell-based. To be noted: GlyT2 Y550L; for IC50: greater than maximum concentration applied (footnote a); for % Max. inhibition: mean ± SEM. As for the experimental part:
as §1, §2
On the technique in general: In two-electrode clamp one electrode senses voltage and the other passes current.

In a further assay the target is T4, GlyT2 W563L mutant (Homo sapiens, UniProt Q9Y345, W563L).
T4 construct: expressed in transfected cells; host or cells: Xenopus laevis oocytes (cRNA injection)
T4 sequence (Q9Y345 1-797 W563L): T1 sequence (Q9Y345 1-797 F428A) with A428F, W563L
The assay is described as follows: Glycine transport currents, two electrode voltage clamp, oocytes expressing GlyT2 W563L. Format: cell-based. To be noted: GlyT2 W563L. As for the experimental part: as §1, §2

The next assay concerns the target T5, GlyT2 P561S mutant (Homo sapiens, UniProt Q9Y345, P561S).
T5 construct: expressed in transfected cells; host or cells: Xenopus laevis oocytes (cRNA injection)
T5 sequence (Q9Y345 1-797 P561S): T1 sequence (Q9Y345 1-797 F428A) with A428F, P561S
As to the kind of experiment: Glycine transport currents, two electrode voltage clamp, oocytes expressing GlyT2 P561S. Format: cell-based. The following applies: GlyT2 P561S. As for the experimental part: as §1, §2

For `CCCCC=CCCCCCCCC(=O)NCC(=O)O` [C14 ω5 Glycine], the IC50 against GlyT2 F428A mutant was > 30000 nM; on GlyT2 WT it was 9200 nM; in the assay on GlyT1 WT, > 10000 nM. Further, the “% Max. inhibition (% inhibition at the highest concentration of inhibitor used)” value at GlyT2 F428A mutant (footnote b) is on record as 33.4 ± 3.0^b (p=0.0007) %. The “GlyT2 % max. inhibition” value on GlyT2 WT is 100 ± 7.2%.
`CCCCCCCCCCC=CCCCC(=O)NCC(=O)O` [C16 ω11 Glycine]: the IC50 on GlyT2 F428A mutant (mean (95% CI)) is 4810 nM; on GlyT2 WT it was 3400 nM; with GlyT1 WT, > 10000 nM. At GlyT2 F428A mutant, the “% Max. inhibition” value is listed as 103 ± 7.7 (p=0.6075) %. In addition, the “GlyT2 % max. inhibition” value at GlyT2 WT was 97.9 ± 2.3%.
As to `CCCCCCCC=CCCCCCCCCC(=O)NCC(=O)O` [C18 ω8 Glycine], on GlyT2 F428A mutant, the IC50 was > 10000 nM and the “% Max. inhibition” value is reported as 13.2 ± 2.7 (p=0.0001) %. Moreover, on GlyT2 WT, the IC50 is 320 nM and the “GlyT2 % max. inhibition” value was 61.3 ± 1.7%. Further, the IC50 with GlyT1 WT was > 10000 nM.
Regarding `CCCCCCCCCC=CCCCCCCC(=O)NCC(=O)O` [C18 ω10 Glycine], the IC50 at GlyT2 F428A mutant (mean (95% CI)) was 776 nM; at GlyT2 WT, 340 nM; in the assay on GlyT1 WT it was > 10000 nM. Besides, the “% Max. inhibition” value at GlyT2 F428A mutant is on record as 25.3 ± 5.3 (p=0.0092) %. Also, the “GlyT2 % max. inhibition” value on GlyT2 WT is reported as 52.4 ± 2.2%.
On to `CCCCCCCC/C=C\CCCCCCCC(=O)N[C@@H](CCCNC(=N)N)C(=O)O` [oleoyl l-Arginine], for which the IC50 at GlyT2 Y550L mutant was > 3000 nM; at GlyT2 WT, 47.9 nM; with GlyT1 WT, > 3000 nM. For the same compound, the “% Max. inhibition” value at GlyT2 Y550L mutant is 9.3 ± 1.4 (p=0.0001) %. Besides, the “GlyT2 % max. inhibition” value at GlyT2 WT is reported as 87.2 ± 3.7%.
On to `CCCCCCCC/C=C\CCCCCCCC(=O)N[C@@H](CC(C)C)C(=O)O` [oleoyl l-Leucine], for which the “% Max. inhibition” value on GlyT2 Y550L mutant is on record as 41.1 ± 6.2 (p=0.0115) %. Also, the “GlyT2 % max. inhibition” value at GlyT2 WT is reported as 72.2 ± 3.8%. Also, the IC50 in the assay on GlyT1 WT was > 10000 nM.
For `CCCCCCCC/C=C\CCCCCCCC(=O)N[C@@H](CO)C(=O)O` [oleoyl l-Serine], the IC50 against GlyT2 Y550L mutant was > 3000 nM; with GlyT1 WT, > 3000 nM; on GlyT2 W563L mutant (mean (95% CI)), 661 nM; on GlyT2 P561S mutant (mean (95% CI)) it was 580 nM. In addition, the results for the “% Max. inhibition” value at GlyT2 Y550L mutant, on GlyT2 W563L mutant (mean ± SEM) and at GlyT2 P561S mutant (mean ± SEM) were 11.2 ± 1.6 (p=0.0001) %, 62.3 ± 5.3 (p=0.3662) % and 80.3 ± 7.3 (p=0.7241) %, respectively. Besides, the “GlyT2 % max. inhibition” value on GlyT2 WT is 73.1 ± 5.1%.

Usually IC50 stands for the concentration that gives 50% inhibition.
